This is an account of results in PMC9234962, “Optimization of Peptide Linker-Based Fluorescent Ligands for the Histamine H1 Receptor” (Journal of Medicinal Chemistry, 2022).

For assay [1], the target named is T1, Nluc-H4R (Homo sapiens, UniProt Q9H3N8).
T1 construct: expressed in transfected cells; host or cells: HEK293T, transient transfection; sonicated cell homogenates
The arrangement: method as in PMID 30249614. The note with it: literature value, cited from earlier work.

For assay [2], the target named is T2, Nluc-H3R (Homo sapiens, UniProt Q9Y5N1).
T2 construct: expressed in transfected cells; host or cells: HEK293T, transient transfection; sonicated cell homogenates
T2 sequence (Q9Y5N1 whole entry): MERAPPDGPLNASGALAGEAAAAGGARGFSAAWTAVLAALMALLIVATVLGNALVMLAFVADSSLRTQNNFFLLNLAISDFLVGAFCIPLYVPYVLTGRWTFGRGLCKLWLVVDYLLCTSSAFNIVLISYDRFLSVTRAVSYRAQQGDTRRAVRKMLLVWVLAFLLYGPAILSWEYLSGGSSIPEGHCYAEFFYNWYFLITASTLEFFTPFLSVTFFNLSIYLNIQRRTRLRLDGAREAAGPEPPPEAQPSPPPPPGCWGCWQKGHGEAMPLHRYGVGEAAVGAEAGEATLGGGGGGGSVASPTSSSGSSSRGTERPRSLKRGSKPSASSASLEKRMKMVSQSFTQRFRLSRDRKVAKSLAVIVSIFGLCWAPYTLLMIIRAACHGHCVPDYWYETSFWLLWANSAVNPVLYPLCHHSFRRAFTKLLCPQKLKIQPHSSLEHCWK
As to the kind of experiment: NanoBRET saturation binding assay on Nluc-H3R HEK293T cell homogenates. Particulars: for binding at H3R in saturation assay (in words): concentrations of up to 1 μM; for Kd / Nluc-H3R pKD: cell homogenates, highest concentration 1 μM for 31a, 31k; for Nluc-H3R pKD: mean ± SEM, three experiments. The procedure: (§1) HEK293T cells were transiently transfected with 2.5 μg of cDNA encoding Nluc-H3R or Nluc-H4R and 2.5 μg of empty pcDEF3 vector using the polyethylenimine method as described previously in Mocking et al.[23] Two days after transfection, cells were collected in phosphate-buffered saline (PBS) and centrifuged at 1900g for 10 min and the cell pellet was stored at −20°C until the day of experiment. The pellet was resuspended in HBSS buffer, and cells were disrupted using a Branson sonifier 250 (Boom bv., Meppel, the Netherlands) prior to use in a NanoBRET binding assay.
For all NanoBRET binding experiments, 10 μM NanoGlo substrate (Promega) was added to each well after the incubation period and fluorescence and luminescence emissions were measured after 5 min.
(§2) Total and non-specific saturation binding curves from NanoBRET saturation binding assay were fitted simultaneously using eq 1: [drawing 4] 1 where Bmax is the maximal specific binding, [B] is the concentration of fluorescent ligand in nM, KD is the equilibrium dissociation constant in nM, M is the slope of the non-specific component, and C is the intercept with the Y axis.
Background: In BRET a luciferase serves as donor, and the signal depends on an acceptor being close.

In assay [3] the target is T1, Nluc-H4R. As to the kind of experiment: NanoBRET saturation binding assay on Nluc-H4R HEK293T cell homogenates. The note with it: for Kd / Nluc-H4R pKD: cell homogenates, highest concentration 1 μM for 31a, 31k; for Nluc-H4R pKD: mean ± SEM, three experiments; for binding at H4R in saturation assay (in words): concentrations of up to 1 μM. The procedure:
as §1
For cell membrane NanoBRET saturation binding experiments, cell homogenates expressing the Nluc-H3R or Nluc-H4R were incubated with the required concentrations of fluorescent ligand in the absence and presence of 10 μM clobenpropit in HBSS for 2 h at 25 °C. For all NanoBRET binding experiments, 10 μM NanoGlo substrate (Promega) was added to each well after the incubation period and fluorescence and luminescence emissions were measured after 5 min.
as §2

Assay [4] has as its target H1R. Particulars: cited from earlier work.
The target in assay [5] is T3, Nluc-H1R (Homo sapiens, UniProt P35367). As to the kind of experiment: NanoBRET association kinetics assay on Nluc-H1R HEK293T cells. Format: binding. More on the design: expressed in transfected cells. Particulars: for Kd: kinetic pKD, read-out: pKD determined from kon and koff (converted); for Kd / kon / MRT (mean residence time, 1/koff) / koff: mean ± SEM; for residence time: read-out: mean residence times (MRT); for kon / MRT (mean residence time, 1/koff) / koff: real-time NanoBRET; for kon: room temperature, 90 min. The procedure: For whole cell NanoBRET association kinetic experiments, 10 μM furimazine was added to each well and incubated at room temperature in the dark for 15 min to allow for stabilization of the luminescence signal. The required concentration of fluorescent ligand in the presence or absence of 10 μM of doxepin was added simultaneously, and the plates were read immediately with each well being read once per min for 90 min.
T3 sequence (P35367 whole entry): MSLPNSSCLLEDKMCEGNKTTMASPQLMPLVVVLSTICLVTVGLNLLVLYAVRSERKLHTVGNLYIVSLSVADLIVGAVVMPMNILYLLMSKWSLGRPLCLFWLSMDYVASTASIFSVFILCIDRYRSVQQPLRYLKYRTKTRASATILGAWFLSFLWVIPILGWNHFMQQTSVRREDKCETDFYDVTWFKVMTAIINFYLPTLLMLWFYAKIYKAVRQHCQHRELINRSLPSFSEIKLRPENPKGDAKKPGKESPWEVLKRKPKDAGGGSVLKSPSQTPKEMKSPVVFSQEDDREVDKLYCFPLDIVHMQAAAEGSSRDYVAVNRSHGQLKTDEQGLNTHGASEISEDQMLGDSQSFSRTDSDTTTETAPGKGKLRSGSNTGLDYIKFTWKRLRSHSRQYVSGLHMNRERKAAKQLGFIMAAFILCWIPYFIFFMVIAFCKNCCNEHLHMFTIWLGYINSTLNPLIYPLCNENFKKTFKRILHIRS
For the NanoBRET association kinetic experiments, the BRET ratio was determined for each concentration of fluorescent ligand at each time point in the presence or absence of 10 μM of doxepin. Specific binding was calculated by subtracting non-specific binding from total binding.

Assay [6] has as its target T4, human H1R (Homo sapiens, UniProt P35367).
T4 construct: expressed in transfected cells; host or cells: CHO cells
As to the kind of experiment: Ca2+ mobilization assay on human H1R-expressing CHO cells. It is filed as cell-based. Particulars: Gaddum equation, shift in histamine EC25 with 1 μM antagonist. On the procedure: CHO cells expressing H1R were grown to confluence in black-walled, clear-bottom 96-well plates. On the day of the experiment, media were replaced with 100 μL of HBSS containing […], 2.3 μM Fluo-4AM (Invitrogen), 0.023% Pluronic F-127, 0.5 mM Brilliant Black BN, and 1 μM required fluorescent ligand and the plates incubated for 1 h at 37 °C in the dark. The plates were then placed in the multi-well fluorometric imaging plate reader FlexStation3 (Molecular Devices, Sunnyvale, CA) and HBSS only or HBSS containing the required concentration of histamine was added after 15 s. Fluo-4 fluorescence was measured at 520 nm (excitation at 485 nm) every 1.52 s for 200 s. For each well, the peak maximum–minimum–maximum change in fluorescence value was taken and plotted against concentration of histamine to give a dose–response curve.
Estimated affinity values (pKB) were calculated from the shift in agonist concentration–response curves in the presence of the fluorescent antagonists using the Gaddum equation (7): [drawing 10] 7 where DR (dose ratio) is the ratio of the agonist concentration required to stimulate an identical response in the presence and absence of antagonist, [B]. DR was determined from the EC25 value as there was a decrease in observed maximal efficacy of histamine in the presence of all 10 fluorescent antagonists.

Assay [7] concerns the target T3, Nluc-H1R. As to the kind of experiment: NanoBRET saturation binding assay on Nluc-H1R expressing HEK293T cells. More on the design: expressed in transfected cells. The note with it: saturation binding curves, whole HEK293T cells; for pKD: non-specific with 10 μM mepyramine, mean ± SEM.
Source text: as §2

The target in assay [8] is T5, YFP-tagged H1R (Homo sapiens, UniProt P35367).
T5 construct: expressed in transfected cells; host or cells: CHO cells
T5 sequence (P35367 whole entry): as above
Nature of the assay: confocal imaging of YFP-tagged H1R expressing CHO cells. It is filed as cell-based. The note with it: 1, 5, 10, 25 nM, 30 min, 37 °C, ± 10 μM mepyramine. The procedure: H1R-YFP expressing CHO cells were grown to approximately 80% confluency on an 8-well Labtek chambered coverglass (Nunc Nalgene). On the day of experiment, the cells were washed two times with 200 μL of HBSS and subsequently incubated in the presence or absence of 10 μM mepyramine for 30 min at 37 °C in humidified air with 0% CO2. The required concentration of 31a was added to the wells and incubated for another 30 min at 37 °C. Images were acquired using a Zeiss LSM710 confocal microscope (Carl Zeiss GmbH, Hena, Germany) fitted with a 63× plan-Apochromat NA1.3 Ph3 oil-immersion lens. For YFP, a 488 nm argon laser was used for excitation and emission was detected using a BP505-30 filter. For fluorescent ligand 31a, a 633 nm helium-neon laser was used for excitation and emission was detected using a 650 nm long pass filter. A pinhole of 1 Airy Unit was used, and fixed laser power, gain, and offset for the BODIPY 630/650 containing compounds were kept constant across all experiments.

Where [9] appears, read: mean ± SEM, four experiments, read-out: pKB (converted).

The structures appear in SMILES notation. Like-named read-outs stand apart in the source and are kept apart here. Square brackets hold non-standard residues; d marks the D form. Peptide text beside a SMILES is read from it. * marks the point of attachment. X1 = O=C(COc1ccc(/C=C/C2=[N+]3C(=Cc4ccc(-c5cccs5)n4[B-]3(F)F)C=C2)cc1)*; Propanoyl(3-Pip(4-O-2-BnPh)) = O=C(CCN1CCC(Oc2ccccc2Cc2ccccc2)CC1)*; BODIPY(FL) = CC1=CC(C)=[N+]2C1=Cc1ccc(CCC(=O)*)n1[B-]2(F)F; βAla = NCCC(=O)O

T1 sequence (Q9H3N8 whole entry): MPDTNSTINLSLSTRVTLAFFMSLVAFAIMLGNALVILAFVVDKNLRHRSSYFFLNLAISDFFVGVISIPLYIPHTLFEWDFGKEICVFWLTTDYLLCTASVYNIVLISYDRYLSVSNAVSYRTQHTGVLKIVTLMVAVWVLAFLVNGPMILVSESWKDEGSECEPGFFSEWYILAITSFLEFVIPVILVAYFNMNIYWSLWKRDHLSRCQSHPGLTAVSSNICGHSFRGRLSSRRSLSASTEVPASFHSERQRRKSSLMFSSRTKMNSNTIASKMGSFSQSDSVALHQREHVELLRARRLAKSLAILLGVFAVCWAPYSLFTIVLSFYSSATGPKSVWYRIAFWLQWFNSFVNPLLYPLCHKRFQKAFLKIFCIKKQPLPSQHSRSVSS
T4 sequence (P35367 whole entry): as the sequence (P35367 whole entry) above

The pKD is the negative decadic logarithm of the KD, by convention in mol/L. For the compound `NC(=NCc1ccc(Cl)cc1)SCCCc1cnc[nH]1` [CA200843, reference compound], in assay [1], the “pKD at Nluc-H4R reported in literature” value is on record as 7.15. In addition, the Kd in assay [1] (read-out: binding affinity at Nluc-H4R reported in literature) is 0.07 µM. Besides, the “binding at H3R in saturation assay (in words)” value (“binding at H3R” for short) in assay [2] was “concentration-dependent, saturable and reversible binding”. In addition, in assay [3], the Kd was 0.031 µM; the “Nluc-H4R pKD” value is listed as 7.51 ± 0.04; the “binding at H4R in saturation assay (in words)” value (“binding at H4R” for short) was “concentration-dependent, saturable and reversible binding”.

For the compound `C[C@@H](NC(=O)CCN1CCC(Oc2ccccc2Cc2ccccc2)CC1)C(=O)N[C@H](C)C(=O)N[C@H](C)C(=O)NCCNC(=O)CCCCCNC(=O)COc1ccc(/C=C/C2=[N+]3C(=Cc4ccc(-c5cccs5)n4[B-]3(F)F)C=C2)cc1` [Compound 1], the “Radioligand binding assay (hH1R) pKi” value in assay [4] is 8.4 ± 0.1.

The term kon denotes the second-order rate constant of association. The low end stands for slower complex formation, the high end for faster complex formation. The term koff denotes the first-order rate constant of dissociation. Take `CC(C)[C@H](NC(=O)CCN1CCC(Oc2ccccc2Cc2ccccc2)CC1)C(=O)N[C@@H](CO)C(=O)N[C@@H](CC(N)=O)C(=O)NCCC(=O)N[C@@H](CCCCNC(=O)COc1ccc(/C=C/C2=[N+]3C(=Cc4ccc(-c5cccs5)n4[B-]3(F)F)C=C2)cc1)C(N)=O` [Compound 31a, (S)-N1-(3-(((S)-1-Amino-6-(2-(4-((E)-2-(5,5-difluoro-7-(thiophen-2-yl)-5H-5λ^4,6λ^4-dipyrrolo[1,2-c:2’,1’-f][1,3,2]diazaborinin-3-yl)vinyl)phenoxy)acetamido)-1-oxohexan-2-yl)amino)-3-oxopropyl)-2-((S)-2-((S)-2-(3-(4-(2-benzylphenoxy)piperidin-1-yl)propanamido)-3-methylbutanamido)-3-hydroxypropanamido)succinamide] ({Propanoyl(3-Pip(4-O-2-BnPh))}-VSN[βAla]K(X1)-NH2): in assay [5], the Kd is 0.0178 µM; the residence time is greater than 60 min; the kon is 14000 M⁻¹ s⁻¹; the “MRT (mean residence time, 1/koff)” value turned out to be 1.26 ± 0.17 h. Besides, the koff in assay [5] was 0.000233 s⁻¹. In assay [6] (setting [9]), the Kb was 0.00275 µM. The Kb in assay [6] (read-out: KB (converted)) is 0.003 µM. In assay [7], this compound yielded a Kd of 0.004 µM and a pKD of 8.40 ± 0.08. The “localization in confocal imaging” value in assay [8] is “localized to the plasma membrane of the cells with almost no intracellular uptake”. Also, in assay [2], the Kd is less than 1 µM, the “Nluc-H3R pKD” value is recorded as less than 6 and the “binding at H3R” value was “little to no binding”. Besides, in assay [3], the Kd was less than 1 µM, the “Nluc-H4R pKD” value is on record as less than 6 and the “binding at H4R” value is listed as “little to no binding”.

Turning to `C[C@H](NC(=O)[C@H](C)NC(=O)[C@H](Cc1ccccc1)NC(=O)CCN1CCC(Oc2ccccc2Cc2ccccc2)CC1)C(=O)NCCC(=O)N[C@@H](CCCCNC(=O)COc1ccc(/C=C/C2=[N+]3C(=Cc4ccc(-c5cccs5)n4[B-]3(F)F)C=C2)cc1)C(N)=O` [Compound 31k, (S)-2-((6S,9S,12S)-12-Benzyl-16-(4-(2-benzylphenoxy)piperidin-1-yl)-6,9-dimethyl-5,8,11,14-tetraoxo-4,7,10,13-tetraazahexadecanamido)-6-(2-(4-((E)-2-(5,5-difluoro-7-(thiophen-2-yl)-5H-5λ^4,6λ^4-dipyrr-olo[1,2-c:2’,1’-f][1,3,2]diazaborinin-3-yl)vinyl)phenoxy)acetamido)hexanamide] ({Propanoyl(3-Pip(4-O-2-BnPh))}-FAA[βAla]K(X1)-NH2), in assay [5], the Kd was 0.0229 µM; the residence time was greater than 60 min; the kon is 11400 M⁻¹ s⁻¹; the “MRT (mean residence time, 1/koff)” value stood at 1.31 ± 0.24 h. Further, the koff in assay [5] was 0.000233 s⁻¹. Further, the Kb in assay [6] (setting [9]) was 0.00257 µM. For the same compound, the Kb in assay [6] (read-out: KB (converted)) is 0.003 µM. In assay [7], this compound came in with a Kd of 0.012 µM and a pKD of 7.92 ± 0.08. Besides, in assay [2], the Kd was less than 1 µM, the “Nluc-H3R pKD” value is reported as less than 6 and the “binding at H3R” value is given as “little to no binding”. Moreover, the “selectivity for H1R over H3R and H4R” value in assay [2] (from NanoBRET saturation binding at H1R, H3R, H4R) was “approximately 100 fold”. For the same compound, in assay [3], the Kd is less than 1 µM, the “Nluc-H4R pKD” value was less than 6 and the “binding at H4R” value was “little to no binding”.

As for `Cc1cc(C)n2c1C=C1C=CC(CCC(=O)NCCCC[C@H](NC(=O)CCNC(=O)[C@H](C)NC(=O)[C@H](C)NC(=O)[C@H](Cc3ccccc3)NC(=O)CCN3CCC(Oc4ccccc4Cc4ccccc4)CC3)C(N)=O)=[N+]1[B-]2(F)F` [Compound 39d, (S)-2-((6S,9S,12S)-12-Benzyl-16-(4-(2-benzylphenoxy)piperidin-1-yl)-6,9-dimethyl-5,8,11,14-tetraoxo-4,7,10,13-tetraazahexadecanamido)-6-(3-(5,5-difluoro-7,9-dimethyl-5H-4λ^4,5λ^4-dipyrrolo[1,2-c:2’,1’-f][1,3,2]diazaborinin-3-yl)propan-amido)hexanamide] ({Propanoyl(3-Pip(4-O-2-BnPh))}-FAA[βAla]K(BODIPY(FL))-NH2), in assay [6] (setting [9]), the Kb is 0.0347 µM. Moreover, in assay [7], the Kd was 1.45 µM and the pKD stood at 5.84 ± 0.13.

In the case of `C[C@H](NC(=O)[C@H](C)NC(=O)[C@H](Cc1ccccc1)NC(=O)CCN1CCC(Oc2ccccc2Cc2ccccc2)CC1)C(=O)NCCC(=O)N[C@@H](CCCCNC(=O)CCCCC[N+]1=C(/C=C/C=C/C=C2/N(C)c3ccc(S(=O)(=O)[O-])cc3C2(C)C)C(C)(C)c2cc(S(=O)(=O)O)ccc21)C(N)=O` [Compound 39f, 1-((5S,8S,11S,18S)-5-Benzyl-1-(4-(2-benzylphenoxy)piperidin-1-yl)-18-carbamoyl-8,11-dimethyl-3,6,9,12,16,24-hexaoxo-4,7,10,13,17,23-hexaazanonacosan-29-yl)-3,3-dimethyl-2-((1E,3E)-5-((E)-1,3,3-trimethyl-5-sulfonatoindolin-2-ylidene)penta-1,3-dien-1-yl)-3H-indol-1-ium-5-sulfonate], the Kb in assay [6] (read-out: KB (converted)) was 0.813 µM. In assay [7], the Kd is 2.19 µM and the pKD amounted to 5.66 ± 0.06.

Consider `c1ccc(Cc2ccccc2OC2CCNCC2)cc1` [VUF13816, 4-(2-Benzylphenoxy)piperidine], for which, in assay [4] (H1R), the “radioligand binding assay pKi” value was 8.20.
